In US20110117164A1, “Use of Additive Sites to Control Nitric Oxide Release from Nitric Oxide Donors Contained within Polymers” (priority 2004, published 2011):

How the values were obtained:
[1] = Air stability of isolated intramolecular diazeniumdiolates; format: physicochemical
Experimental: The reaction of NO with 1f yielded a diazeniumdiolate (as determined by UV) that was initially air-stable, but decomposed after 12 hours even with storage at −20° C. […] Thus, the most air-stable intramolecular diazeniumdiolate that could be isolated was that of diamine 1e. Air stable bis-diazeniumdiolates of 1f and 1g may, however, be prepared when an exogenous base such as sodium methoxide is present in the reaction mixture.

[2] = system: cells after vascular injury; conditions: cited from earlier work
[3] = Thermal gravimetric analysis under nitrogen (thermal stability of diazeniumdiolates); format: physicochemical; conditions: nitrogen atmosphere
[4] = for t1/2 ("apparent" t1/2 and t1/2): buffer, pH 7.4; for k: first order decomposition, PBS buffer, pH 7.4, 37° C., n > 3
[5] = system: thrombus formation; conditions: dispersed in a silicone rubber matrix; cited from earlier work
[6] = donor and its diamine precursor; back react to potentially toxic nitrosamines; cited from earlier work
[7] = system: platelet activity; conditions: within a polymer coating on the inner walls of extracorporeal circuits; cited from earlier work
[8] = NO release from polymer films/coatings containing NO donor in PBS buffer at 37° C. by chemiluminescence; format: physicochemical; conditions: ~5 wt. % in PVC film plasticized with DOS (1:2), PBS buffer, 37° C., no KTpClPB
Experimental: Thermal stability of diazeniumdiolates. […] Kinetics. […] Use in Hydrophobic Systems.
In the absence of the KTpClPB, NO release decreases dramatically after approximately 1 hour. […] The decrease in NO release observed is believed to result from an increase in the pH within the organic polymer film, which decreases the decomposition rate of lipophilic diazeniumdiolates. As water diffuses into the film initiating NO release, secondary amine sites result. The secondary amine sites have a higher pKa than water and therefore deprotonate water to form hydroxide ions. The basic microdomain environment that results within the polymer, in turn, slows further decomposition of the remaining diazeniumdiolates that would generate NO. This retardation may occur as a result of the organic ammonium hydroxide microphases within the polymer, which in turn serves to stabilize the remaining diazeniumdiolates.
FT-IR were collected on Perken Elmer Spectrum VX. […] Elemental analyses were performed. Reagents. […] NO was purchased from Matheson Gases. […] General NO Addition Procedure. […] The products were finally collected and dried under vacuum. Molar Extinction Coefficients. […] The maximum wavelength and absorbance were collected. […] Kinetics Studies. […] The NO released was measured using chemiluminescence. […] Preparation of Polymer Films Containing Diazeniumdiolates. […] The membranes were covered and allowed to cure overnight. […] Polymerization to Form Boc-protected Diamine Copolymer.
General Procedure for Deprotection to Form Diamine Copolymer (c). 35 mg of the copolymer (b) was dissolved in 2 mL of dichloromethane and then 200 μL of TFA (trifluoroacetic acid) was added dropwise. The solution was stirred at room temperature for about 3 hours. The reaction mixture was diluted with 20 mL of dichloromethane, and the organic phase was then washed with sodium bicarbonate, water, and brine, and was dried with sodium sulfate. The solvent was evaporated and the resulting copolymer was dried under vacuum overnight. ^1H-NMR was performed to confirm the structure and actual composition of the copolymer. General Procedure for NO Loading to Form Polymer-Based NO Donor (d). 20 mg of the deprotected copolymer (c) was dissolved in 3 mL of dry THF and placed in a high pressure reactor with a stirring bar, and flushed with argon for about 10 minutes. 100% excess of sodium methoxide (with respect to free amine sites) was added and the reactor was closed. The reactor was purged with argon again for several times (e.g. ten times) over a 1 hour period and was charged with NO at 80 psi. The reaction mixture was stirred for 72 hours at room temperature. After the reaction was complete, the copolymer was precipitated with dry hexane under argon. The remaining solvent was removed using a vacuum, and the diazeniumdiolated copolymers (d) were examined by UV-Vis spectrum as well as NOA. This resulting copolymer was stored in sealed vials charged with argon in a freezer. Preparation of Polymer Films Containing Polymer-Based No Donor. Polymer membranes containing the polymer-based NO donor was prepared by dissolving 60.8 mg poly(vinyl chloride) (PVC), 30.4 mg dioctyl sebacate (DOS), and 9.1 mg poly(lactide-co-glycolide) (50:50) (PLGA 50:50) in 1.5 mL of freshly distilled tetrahydrofuran. […] A trilayer film configuration is employed to fabricate films. […] Four hours later the polymer cocktail was cast on top of the PVC layer. After another 4 hours, the PVC solution was cast again as a finish layer. The membrane was covered and allowed to cure overnight. Polymer films containing no additives were prepared in a similar manner. […] NO Release Measurements by Chemiluminescence. All NO measurements were performed using a Sievers Nitric Oxide Analyzer (NOA), model 280. The instrument was calibrated before each experiment using an internal two-point calibration (zero gas and 45 PPM). The flow rate was set to 200 mL/min with a cell pressure of 5.4 torr and an oxygen pressure of 6.0 psig. […]

[9] = in vivo; cited from earlier work

Compound | TNO loss (stable up to) [3] | t1/2 ("apparent" t1/2 and t1/2) [4] | k [4] | also measured
CCCCCCN(CCCCCC)CCCCCCN [Compound 1f, N,N-dihexylhexamethylene diamine] |  |  |  | time to decomposition of the initially air-stable diazeniumdiolate ([1]; even with storage at −20° C.): 12 h
NCCN(CCN)/[N+]([O-])=N/O [DETA/NO] |  |  |  | effect on cell proliferation after vascular injury [2]: substantially suppress overproliferation of cells after vascular injury
O=C([O-])C1CCCN1[N+]([O-])=N[O-].[Na+].[Na+] (centres unmarked) [PROLI/NO] |  |  |  | effect when infused into blood [9]: relieve muscle spasms
CCCCCCCCCCCCN(CCCCCCN)CCCCCCCCCCCC [Compound 1g, N,N-didodecylhexamethylene diamine] |  |  |  | air stability during work-up ([1]; presence of oxygen during the work-up procedure): immediately decomposes

The next lines start with results.

TNO loss (stable up to) [3] | t1/2 ("apparent" t1/2 and t1/2) [4] | Compound | k [4] | also measured
104 °C | 5.78 ± 0.433 min | CCNCCCCCCN(CC)/[N+]([O-])=N/O [Compound 2b, (Z)-1-{N-Ethyl-N-[6-(N-ethylammoniohexyl)amino]}diazen-1-ium-1,2-diolate] | 0.0020 ± 0.0001 s⁻¹ | 
104 °C | 1.12 ± 0.012 min | CNCCCCCCN(C)/[N+]([O-])=N/O [Compound 2a, (Z)-1-[N-methyl-N-[6-(N-methylammoniohexyl)amino]]-diazen-1-ium-1,2-diolate] | 0.010 ± 0.0001 s⁻¹ | effect on thrombus formation [5]: prevent thrombus formation on the surface of intravascular sensors; leaching from polymer matrix [6]: tend to leach from the surface of the polymer matrix; effect on platelet activity [7]: greatly reduce platelet activity; total NO release profile from film without additive [8]: releases all of its NO in a short period of time
104 °C | 5.32 ± 0.383 min | CCCNCCCCCCN(CCC)/[N+]([O-])=N/O [Compound 2c, (Z)-1-{N-Propyl-N-[6-(N-propylammoniohexyl)amino]}-diazen-1-ium-1,2-diolate] | 0.0022 ± 0.0001 s⁻¹ | 
104 °C | 4.65 ± 0.517 min | CCCCCNCCCCCCN(CCCCC)/[N+]([O-])=N/O [Compound 2e, (Z)-1-{N-Pentyl-N-[6-(N-pentylammoniohexyl)amino]}-diazen-1-ium-1,2-diolate] | 0.0025 ± 0.0001 s⁻¹ | 
